Measured values from patent US20150246888A1, “ENOYL REDUCTASE INHIBITORS WITH ANTIBACTERIAL ACTIVITY” (priority 2012, published 2015).
Converted amounts (≈) assume the structure as drawn. Where two headings read alike, the source gives them in different places.

Columns and labels:
[1] = system: S. aureus (ATCC number 29213); assay: microbe, parasite or virus in culture; assay type: cell-based
S. aureus = assay: Cell viability as a function of time (measured with depolarization); assay type: cell-based
S. aureus membrane = assay: Membrane depolarization as a function of time; assay type: cell-based
MRSA (ATCC number 43300) = assay: microbe, parasite or virus in culture; assay type: cell-based, methicillin-resistant Staphylococcus aureus; conditions: Staphylococcus aureus
[2] = system: E. coli (BW251113 strain); assay: microbe, parasite or virus in culture; assay type: cell-based; conditions: Escherichia coli
FtuFabI = FtuFabI (Francisella tularensis subsp. tularensis, UniProt Q5NGQ3); assay: biochemical; design: species or system F. tularensis subsp. tularensis Schu4
[3] = system: B. anthracis, ΔANR strain; assay: microbe, parasite or virus in culture; assay type: cell-based; conditions: Bacillus anthracis
[4] = system: F. tularensis, strain Utah 112; assay: microbe, parasite or virus in culture; assay type: cell-based; conditions: Francisella tularensis, UTAH112
[5] = system: E. coli TolC-, an efflux defective mutant; assay: microbe, parasite or virus in culture; assay type: cell-based; conditions: Escherichia coli
FabI = FabI (Francisella tularensis subsp. tularensis, UniProt Q5NGQ3); assay: biochemical; design: species or system F. tularensis subsp. tularensis Schu4; conditions: read-out: Ki^1 (Experimental Ki)
[6] = read-out: IC50, Inhibition of FabI

Chain of FtuFabI (Q5NGQ3 1-260 limits assumed): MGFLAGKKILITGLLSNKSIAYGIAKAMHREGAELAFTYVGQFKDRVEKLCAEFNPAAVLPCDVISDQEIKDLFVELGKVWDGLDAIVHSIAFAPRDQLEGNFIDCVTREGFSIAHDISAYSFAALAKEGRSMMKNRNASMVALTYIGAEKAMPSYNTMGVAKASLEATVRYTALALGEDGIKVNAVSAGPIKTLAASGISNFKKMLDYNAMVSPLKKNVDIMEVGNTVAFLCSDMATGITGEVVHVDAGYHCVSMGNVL
Chain of FabI (Q5NGQ3 1-260 limits assumed): as above

`N#CC(C#N)=NNc1cccc(Cl)c1` [CCCP, carbonyl cyanide m-chlorophenylhydrazone, reference compound] was tested, and the MIC ([1]; Staphylococcus aureus) was 1 µg/mL (≈ 4.89 µM), the “Cell viability (done at 2X MIC)” value (S. aureus) was “bactericidal” and the “Depolarization (done at 2X MIC)” value (S. aureus membrane) was “Highly depolarizing”.

For `COc1ccc(Cn2cnc3cc4c(cc32)CCCC4)cc1` [Compound 24, 1-(4-methoxybenzyl)-5,6,7,8-tetrahydro-1H-naphtho[2,3-d]imidazole], the MIC ([1]; Staphylococcus aureus) was over 12.5 µg/mL, the MIC (MRSA (ATCC number 43300)) was over 12.5 µg/mL and the MIC [2] was over 12.5 µg/mL. For the same compound, the IC50 (FtuFabI) was 330 nM, the MIC [3] was over 12.5 µg/mL and the MBC [4] was 18.8 µg/mL (≈ 64.3 µM). The MIC [4] was 4.7 µg/mL (≈ 16.1 µM), the MBC [5] was over 25 µg/mL and the MIC [5] was 12.5 µg/mL (≈ 42.8 µM).

With `CC1(C)S[C@@H]2[C@H](NC(=O)[C@H](N)c3ccccc3)C(=O)N2[C@H]1C(=O)O` [Ampicillin, reference compound] the MIC [1] was 0.4 µg/mL (≈ 1.14 µM), the “Cell viability (done at 2X MIC)” value (S. aureus) was “bactericidal” and the “Depolarization (done at 2X MIC)” value (S. aureus membrane) was “No depolarization”.

Compound `COc1ccc(Cn2cnc3cc4c(cc32)CCC4)cc1OC` [Compound 23, 1-(3,4-dimethoxybenzyl)-1,5,6,7-tetrahydroindeno[5,6-d]imidazole] has an IC50 (FtuFabI) of 5900 nM.

`COc1ccc(Cn2cnc3cc4c(cc32)CCC4)cc1C` [Compound 8, 1-(4-methoxy-3-methylbenzyl)-1,5,6,7-tetrahydroindeno[5,6-d]imidazole] gave an MIC ([1]; Staphylococcus aureus) of over 12.5 µg/mL, an MIC (MRSA (ATCC number 43300)) of over 12.5 µg/mL and an MIC [2] of over 12.5 µg/mL. The IC50 (FtuFabI; [6]) was 5 nM, the MIC [3] was over 12.5 µg/mL and the MBC [4] was 12.5 µg/mL (≈ 42.8 µM). It also gave an MIC [4] of 5.5 µg/mL (≈ 18.8 µM) and an MIC [5] of 12.5 µg/mL (≈ 42.8 µM).

With `CC(c1ccc(Cl)c(Cl)c1)n1cnc2cc3c(cc21)CCC3` (centres unmarked) [Compound 3, 1-(1-(3,4-dichlorophenyl)ethyl)-1,5,6,7-tetrahydroindeno[5,6-d]imidazole] the MIC [1] was 5.5 µg/mL (≈ 16.6 µM), the MBC ([1]; Staphylococcus aureus) was over 25 µg/mL and the MIC ([1]; Staphylococcus aureus) was 5.5 µg/mL (≈ 16.6 µM). The “Cell viability (done at 2X MIC)” value (S. aureus) was “Bacteriostatic”, the MBC (MRSA (ATCC number 43300)) was 12.5 µg/mL (≈ 37.7 µM) and the MIC (MRSA (ATCC number 43300)) was 6.3 µg/mL (≈ 19 µM). The MIC [2] was over 12.5 µg/mL, the IC50 (FtuFabI) was 43 nM and the MBC [3] was 4.7 µg/mL (≈ 14.2 µM). For the same compound, the MIC [3] was 3.9 µg/mL (≈ 11.8 µM), the MBC [4] was 9.4 µg/mL (≈ 28.4 µM) and the MIC [4] was 3.9 µg/mL (≈ 11.8 µM). For the same compound, the MBC [5] was 12.5 µg/mL (≈ 37.7 µM), the MIC [5] was 3.1 µg/mL (≈ 9.36 µM) and the “Depolarization (done at 2X MIC)” value (S. aureus membrane) was “Initially depolarizing (in first 60 min) but cells ‘recover’ and regain polarization compared to control with no compound”.

In the case of `Cc1cc2ncn(Cc3ccc(O)c(C)c3)c2cc1C` [Compound 18, 4-((5,6-dimethyl-1H-benzo[d]imidazol-1-yl)methyl)-2-methylphenol], the IC50 (FtuFabI) is reported as 1300 nM.

`COc1ccc(Cn2cnc3cc4c(cc32)CCCC4)cc1OC` [Compound 10, 1-(3,4-dimethoxybenzyl)-5,6,7,8-tetrahydro-1H-naphtho[2,3-d]imidazole] gave an MIC ([1]; Staphylococcus aureus) of over 12.5 µg/mL, an MIC (MRSA (ATCC number 43300)) of over 12.5 µg/mL and an MIC [2] of over 12.5 µg/mL. For the same compound, the IC50 (FtuFabI; read-out: IC50) was 1360 nM, the IC50 (FtuFabI; [6]) was 1360 nM and the Ki (FtuFabI; read-out: Ki^2 (Calculated using the Cheng-Prusoff Equation)) was 1100 nM. The MIC [3] was over 12.5 µg/mL, the MIC [4] was over 12.5 µg/mL and the Ki (FabI) was 1430 ± 270 nM. It also gave an MIC [5] of over 12.5 µg/mL.

Work on `COc1ccc(Cn2cnc3cc4c(cc32)CC(C)(C)C4)cc1OC` [Compound 12, 1-(3,4-dimethoxybenzyl)-6,6-dimethyl-1,5,6,7-tetrahydroindeno[5,6-d]imidazole] yielded an MIC ([1]; Staphylococcus aureus) of over 12.5 µg/mL, an MIC (MRSA (ATCC number 43300)) of over 12.5 µg/mL and an MIC [2] of over 12.5 µg/mL. The IC50 (FtuFabI) was 71 nM, the MIC [3] was over 12.5 µg/mL and the MIC [4] was over 12.5 µg/mL. The MIC [5] was over 12.5 µg/mL.

Work on `CC(c1ccc(Cl)c(Cl)c1)n1cnc2cc3c(cc21)COC3` (centres unmarked) [Compound 6, 1-(1-(3,4-dichlorophenyl)ethyl)-5,7-dihydro-1H-isobenzofuro[5,6-d]imidazole] yielded an MIC ([1]; Staphylococcus aureus) of over 12.5 µg/mL, an MIC (MRSA (ATCC number 43300)) of over 12.5 µg/mL and an MIC [2] of over 12.5 µg/mL. It also gave an IC50 (FtuFabI; [6]) of 890 nM, an MIC [3] of over 12.5 µg/mL and an MIC [4] of over 12.5 µg/mL. For the same compound, the MIC [5] was over 12.5 µg/mL.

For `c1cc2c(cc1Cn1cnc3cc4c(cc31)CCC4)OCO2` [Compound 19, 1-(benzo[d][1,3]dioxol-5-ylmethyl)-1,5,6,7-tetrahydroindeno[5,6-d]imidazole], the MBC ([1]; Staphylococcus aureus) was over 25 µg/mL, the MIC ([1]; Staphylococcus aureus) was 9.4 µg/mL (≈ 32.2 µM) and the MBC (MRSA (ATCC number 43300)) was over 25 µg/mL. It also gave an MIC (MRSA (ATCC number 43300)) of 10.9 µg/mL (≈ 37.3 µM), an MIC [2] of over 12.5 µg/mL and an IC50 (FtuFabI) of 2200 nM. The MIC [3] was over 12.5 µg/mL, the MBC [4] was 37.5 µg/mL (≈ 128 µM) and the MIC [4] was 6.3 µg/mL (≈ 21.6 µM). It also gave an MIC [5] of over 12.5 µg/mL.

For `CC1(C)Cc2cc3ncn(Cc4ccc5c(c4)OCO5)c3cc2C1` [Compound 13, 1-(benzo[d][1,3]dioxol-5-ylmethyl)-6,6-dimethyl-1,5,6,7-tetrahydroindeno[5,6-d]imidazole], the MIC ([1]; Staphylococcus aureus) was over 12.5 µg/mL, the MIC (MRSA (ATCC number 43300)) was over 12.5 µg/mL and the MIC [2] was over 12.5 µg/mL. For the same compound, the IC50 (FtuFabI) was 29 nM, the MIC [3] was over 12.5 µg/mL and the MIC [4] was over 12.5 µg/mL. The MIC [5] was 12.5 µg/mL (≈ 39 µM).

`COc1ccc(Cn2cnc3cc4c(cc32)CCC4)cc1` [Compound 20, 1-(4-methoxybenzyl)-1,5,6,7-tetrahydroindeno[5,6-d]imidazole] showed an MIC ([1]; Staphylococcus aureus) of over 12.5 µg/mL, an MIC (MRSA (ATCC number 43300)) of over 12.5 µg/mL and an MIC [2] of over 12.5 µg/mL. It also gave an IC50 (FtuFabI) of 840 nM, an MIC [3] of over 12.5 µg/mL and an MBC [4] of 37.5 µg/mL (≈ 135 µM). For the same compound, the MIC [4] was 5.5 µg/mL (≈ 19.8 µM) and the MIC [5] was over 12.5 µg/mL.
